How the values were obtained:
[1] = target: T1, PD-1/PD-L1 interaction (Homo sapiens, UniProt Q9NZQ7); experiment: PD-1/PD-L1 NFAT reporter co-culture assay; assay type: cell-based; details: Jurkat PD-1 NFAT-luciferase cells co-cultured with aAPC-PD-L1 CHO cells, 6 hrs at 37° C.; read-out: EC50 NFAT Luciferase
T1 construct: expressed in transfected cells; host or cells: CHO cells (aAPC-PD-L1) co-cultured with Jurkat cells overexpressing PD-1 and an NFAT-luciferase reporter
In short: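 Luminescence (ONE-Glo) after 6 h, 37 °C co-culture reports NFAT-luciferase in PD-1 Jurkat cells, which PD-1/PD-L1 engagement suppresses. Partner cells: CHO expressing anti-CD3 and PD-L1. EC50 from four-parameter dose-response fit.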

[2] = target: PD-1/PD-L1 (Homo sapiens, UniProt Q9NZQ7); experiment: PD-1/PD-L1 biochemical protein-protein interaction assay (ALPHA); assay type: binding; details: 0.3 nM His tagged PD-L1, 2.5 nM biotinylated Fc-PD-1, 60 minutes at 25° C., read-out: IC50 PD-L1-PD-1 Alpha IC50-mono PD-L1-fcP-D1
In short: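 IC50 values derive from four-parameter fits of ALPHA signal decrease. Assay: 0.3 nM His-tagged PD-L1 with 2.5 nM biotinylated Fc-PD-1, Hepes pH 7.4 with 0.005% Tween 20 and 0.01% BSA, 60 min at 25° C, then anti-His acceptor and streptavidin donor beads.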

[3] = target: T2, interaction between the recombinant extracellular domain (ECD) of PD-1 and native cell-bound PD-L1 (Homo sapiens, UniProt Q9NZQ7); experiment: CHO/PD-L1 cell capture assay; assay type: cell-based; details: CHO cells overexpressing PD-L1, pre-incubated 1 hr with compound, captured on biotinylated Fc-PD-1 coated plates, 75 min at room temperature
T2 construct: expressed in transfected cells
In short: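 EC50 values came from four-parameter fits of counts of Draq5-stained CHO-PD-L1 cells retained on plate-bound biotinylated Fc-PD-1 ECD, enumerated by high-content imaging. Cells in PBS pH 7.4 with EDTA and 2% BSA had 1 hr compound pre-incubation, then 75 min capture at room temperature.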

[4] = target: T3, PD-L1 (Homo sapiens, UniProt Q9NZQ7); experiment: PD-L1/PD-L1 dimerization biochemical protein-protein interaction assay (ALPHA); assay type: binding; details: compound-induced PD-L1 dimerization, head prints '1 nM' (0.5 nM His-tagged PD-L1 and 0.5 nM FLAG-tagged PD-L1), read-out: AC50 PDL1 Dimer Alpha 1 nM
T3 construct: determine if they can specifically dimerize the extracellular domains of PD-L1
In short: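 After 2 h at 25 °C with compound, His- and FLAG-tagged PD-L1 ECDs (each 0.5 nM final; 25 mM Hepes pH 7.4, 150 mM NaCl) were detected by sequential anti-His acceptor and anti-FLAG donor bead incubations. Dose-response curves fitted to four-parameter equation for AC50.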

T1 sequence (Q9NZQ7 19-290): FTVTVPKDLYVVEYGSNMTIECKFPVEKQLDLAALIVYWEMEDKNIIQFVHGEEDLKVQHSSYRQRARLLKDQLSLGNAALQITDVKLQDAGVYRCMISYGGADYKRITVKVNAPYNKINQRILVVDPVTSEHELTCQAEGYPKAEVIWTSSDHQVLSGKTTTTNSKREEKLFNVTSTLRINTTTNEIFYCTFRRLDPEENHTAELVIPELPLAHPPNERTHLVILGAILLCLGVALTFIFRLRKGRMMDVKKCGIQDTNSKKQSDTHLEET
T2 sequence (Q9NZQ7 19-290): as above
T3 sequence (Q9NZQ7 19-238 limits assumed): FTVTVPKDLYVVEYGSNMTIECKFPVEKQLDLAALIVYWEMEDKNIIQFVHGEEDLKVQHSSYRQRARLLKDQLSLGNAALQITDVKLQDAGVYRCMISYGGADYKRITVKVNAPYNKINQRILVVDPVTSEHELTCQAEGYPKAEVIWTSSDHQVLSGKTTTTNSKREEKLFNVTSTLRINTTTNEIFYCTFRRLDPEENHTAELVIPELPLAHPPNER
T3 sequence (Q9NZQ7 19-238 limits assumed): as above
Sequence of PD-1/PD-L1 (Q9NZQ7 19-238 limits assumed): as above

| SMILES | EC50 [1] [nM] | IC50 [2] [nM] | EC50 [3] [nM] | AC50 [4] [nM] |
| --- | --- | --- | --- | --- |
| Cc1c(COc2nc(OCCc3cncnc3)c(CNC[C@@H](O)CC(=O)O)cc2Br)cccc1-c1cccc(COc2nc(OCCc3cncnc3)c(CNC[C@@H](O)CC(=O)O)cc2Br)c1C [Example 127, (3S,3′S)-4,4′-((((((2,2′-dimethyl-[1,1′-biphenyl]-3,3′-diyl)bis(methylene))bis(oxy))bis(5-bromo-2-(2-(pyrimidin-5-yl)ethoxy)pyridine-6,3-diyl))bis(methylene))bis(azanediyl))bis(3-hydroxybutanoic acid)] | 193 | 0.2 | 68.6 | 166 |
| Cc1c(COc2nc(OCC3COC3)c(CNC[C@@H](O)CC(=O)O)cc2Br)cccc1-c1cccc(COc2nc(OCC3COC3)c(CNC[C@@H](O)CC(=O)O)cc2Br)c1C [Example 132, (3S,3′S)-4,4′-((((((2,2′-dimethyl-[1,1′-biphenyl]-3,3′-diyl)bis(methylene))bis(oxy))bis(5-bromo-2-(oxetan-3-ylmethoxy)pyridine-6,3-diyl))bis(methylene))bis(azanediyl))bis(3-hydroxybutanoic acid)] | 391 | 0.3 | 194 | 279 |
| Cc1c(COc2cc(OCc3cncc(C#N)c3)c(CNC[C@H](O)C(=O)O)cc2Cl)cccc1-c1cccc(COc2cc(OCc3cncc(C#N)c3)c(CNC[C@H](O)C(=O)O)cc2Cl)c1C [Example 213, (2S,2′S)-3,3′-((((((2,2′-dimethyl-[1,1′-biphenyl]-3,3′-diyl)bis(methylene))bis(oxy))bis(5-chloro-2-((5-cyanopyridin-3-yl)methoxy)-4,1-phenylene))bis(methylene))bis(azanediyl))bis(2-hydroxypropanoic acid)] | 182 | 1.6 | 165 | 255 |
| COc1cc(OCc2cccc(-c3cccc(COc4cc(OC)c(CNC[C@@H](O)CC(=O)O)cc4Cl)c3C)c2C)c(Cl)cc1CNC[C@@H](O)CC(=O)O [Example 214, (3S,3′S)-4,4′-((((((2,2′-dimethyl-[1,1′-biphenyl]-3,3′-diyl)bis(methylene))bis(oxy))bis(5-chloro-2-methoxy-4,1-phenylene))bis(methylene))bis(azanediyl))bis(3-hydroxybutanoic acid)] | 172 | 0.2 | 22.3 | 188 |

These reach a lower EC50 [1]. Values come first.

| EC50 [1] [nM] | IC50 [2] [nM] | EC50 [3] [nM] | AC50 [4] [nM] | SMILES |
| --- | --- | --- | --- | --- |
| 160 | 0.2 | 263 | 236 | Cc1c(COc2cc(OCc3cncc(C#N)c3)c(CNC[C@H](O)CC(=O)O)cc2Cl)cccc1-c1cccc(COc2cc(OCc3cncc(C#N)c3)c(CNC[C@H](O)CC(=O)O)cc2Cl)c1C [Example 162, (3R,3′R)-4,4′-((((((2,2′-dimethyl-[1,1′-biphenyl]-3,3′-diyl)bis(methylene))bis(oxy))bis(5-chloro-2-((5-cyanopyridin-3-yl)methoxy)-4,1-phenylene))bis(methylene))bis(azanediyl))bis(3-hydroxybutanoic acid)] |
| 115 | 0.2 | 71.6 | ≥ 10000 | COc1nc(OCc2cccc(-c3cccc(COc4nc(OC)c(CNCC(=O)O)cc4Cl)c3C)c2C)c(Cl)cc1CNCC(=O)O [Example 178, 2,2′-((((((2,2′-dimethyl-[1,1′-biphenyl]-3,3′-diyl)bis(methylene))bis(oxy))bis(5-chloro-2-methoxypyridine-6,3-diyl))bis(methylene))bis(azanediyl))diacetic acid] |
| 109 | 2.2 | 62.3 | ≥ 10000 | COc1nc(OCc2cccc(-c3cccc(COc4nc(OC)c(CNC[C@@H](O)C(=O)O)cc4Cl)c3C)c2C)c(Cl)cc1CNC[C@@H](O)C(=O)O [Example 167, (2R,2′R)-3,3′-((((((2,2′-dimethyl-[1,1′-biphenyl]-3,3′-diyl)bis(methylene))bis(oxy))bis(5-chloro-2-methoxypyridine-6,3-diyl))bis(methylene))bis(azanediyl))bis(2-hydroxypropanoic acid)] |
| 108 | 0.4 | 217 | 367 | Cc1c(COc2nc(OCc3cncc(C#N)c3)c(CNC[C@@H](O)CC(=O)O)cc2Br)cccc1-c1cccc(COc2nc(OCc3cncc(C#N)c3)c(CNC[C@@H](O)CC(=O)O)cc2Br)c1C [Example 240, (3S,3′S)-4,4′-((((((2,2′-dimethyl-[1,1′-biphenyl]-3,3′-diyl)bis(methylene))bis(oxy))bis(5-bromo-2-((5-cyanopyridin-3-yl)methoxy)pyridine-6,3-diyl))bis(methylene))bis(azanediyl))bis(3-hydroxybutanoic acid)] |
| 88 | 0.1 | 6 | 100 | Cc1c(COc2cc(OCc3cncc(C#N)c3)c(CNC[C@@H](O)CC(=O)O)cc2Cl)cccc1-c1cccc(-c2ccc(OCCNC[C@@H](O)CC(=O)O)cc2)c1C [Example 16, (S)-4-((4-((4″-(2-(((S)-3-carboxy-2-hydroxypropyl)amino)ethoxy)-2,2′-dimethyl-[1,1′:3′,1″-terphenyl]-3-yl)methoxy)-5-chloro-2-((5-cyanopyridin-3-yl)methoxy)benzyl)amino)-3-hydroxybutanoic acid] |
